Data on three molecules can be found in patent US12054660B2, “Compound, composition, cured substance, optically anisotropic body, optical element, and light guide element” (FUJIFILM Corporation, priority 2021, dated 2024).

SMILES strings stand for the structures.

What all share (type): physicochemical
The nature of data set [1]: Measurement of Δn (refractive index anisotropy), wedge-shaped liquid crystal cell. The conditions noted are these: 550 nm, 30° C. or lower limit temperature of nematic phase+0 to 10° C.; some extrapolated from 1/2 mixture with L-1-1. As to the method: The Δn of each of the compounds of Examples and Comparative Examples (the compounds A-1, A-3 to A-20, and the compounds RA-1 and RA-2), which are the compounds to be measured, was measured by a method using a wedge-shaped liquid crystal cell described on page 202 in the Liquid crystal handbook (edited by the liquid crystal handbook editorial board, published by Maruzen Co., Ltd., 2000). An was defined as a measured value at a wavelength of 550 nm at 30° C. or the lower limit temperature of the nematic phase+0° C. to 10° C. In a case of a compound which is liable to crystallize or a compound having no liquid crystallinity, evaluation was carried out using a mixture thereof with the other liquid crystal compound, and Δn was estimated from the extrapolated value of the measured value thereof. The following L-1-1 was used as the other liquid crystal compound. As the above mixture, a mixture obtained by mixing at a ratio of the compound to be measured/the L-1-1=1/2 (in terms of mass ratio) was used.
A case where Δn was 0.35 or more was evaluated as A, a case where Δn was 0.32 or more and less than 0.35 was evaluated as B, a case where Δn was 0.30 or more and less than 0.32 was evaluated as C, and a case where Δn was less than 0.30 was evaluated as D. The results are shown in Table 1.

A short description of data set [2]: Evaluation of durability (moisture-heat resistance test) of optically anisotropic layer. To be noted: rate of change in Re of layer (25 parts compound/75 parts L-1) after 136 hours at 100° C., 95% RH. The procedure:
(§1) As shown below, the durability of the optically anisotropic layer produced using the composition containing each of the compounds A-1 and A-3 to A-20, and the compounds RA-1 and RA-2 was evaluated.
(§2) A coating composition having the following composition was prepared and applied by spin coating onto a rubbing-treated glass attached with an alignment film.
(§3) The polymerizable liquid crystal compound L-1 is a mixture obtained by mixing at a ratio of the following L-1-1/L-1-2/L-1-3=84/14/2 (in terms of mass ratio).
(§4) Re is an in-plane retardation. Rate of change in Re (%)=[100×{|(Re after test)−(Re before test)|}/(Re before test)]
(§5) Re was measured with Axoscan manufactured by Axometrics, Inc. at a wavelength of 550 nm, and the measurement temperature was set to room temperature.
The produced optically anisotropic layer was allowed to be left for 136 hours at 100° C. and a relative humidity of 95% RH, whereby a moisture-heat resistance test was carried out. The rate of change in Re before and after the durability test was evaluated, the durability in a case where the rate of change in Re was less than 10% was evaluated as A, and the durability in a case where the rate of change in Re was 10% or more was evaluated as B. The smaller the rate of change in Re, the more excellent the durability.

Data set [3] can be described thus: Evaluation of solubility in methyl ethyl ketone. The conditions noted are these: precipitation concentration in methyl ethyl ketone at room temperature (25° C.). As to the method:
The solubility of each of the compounds of Examples and Comparative Examples (the compounds A-1, A-3 to A-20, and the compounds RA-1 and RA-2) in methyl ethyl ketone was evaluated. A solution in which the compound was ultrasonically dissolved or dissolved by heating was produced.

The nature of data set [4]: Evaluation of liquid crystallinity (hot stage, polarization microscope). To be noted: heated on a hot stage. Also on record: key: A case of having liquid crystallinity was evaluated as A; a case of having no liquid crystallinity was evaluated as B. From the text: As a specific observation method, optical anisotropy and fluidity derived from the liquid crystal phase can be checked by carrying out an observation under a polarization microscope while heating or lowering the temperature of the compound with a hot stage or the like.
The respective compounds of Examples and Comparative Examples (the compounds A-1, A-3 to A-20, and the compounds RA-1 and RA-2) were heated on a hot stage and observed with a polarization microscope, and the phase transition temperature was measured to evaluate the presence or absence of liquid crystallinity. A case of having liquid crystallinity was evaluated as A, and a case of having no liquid crystallinity was evaluated as B. The results are shown in Table 1.

A short description of data set [5]: Evaluation of light resistance of optically anisotropic layer. To be noted: rate of change in Re of layer (25 parts compound/75 parts L-1) after xenon irradiation 50 hours, 63° C., 50% RH, oxygen-blocking. As to the method: as §1, §2, §3
The produced optically anisotropic layers for light resistance/durability tests were irradiated with light using a Super Xenon Weather Meter SX75 manufactured by Suga Test Instruments Co., Ltd. Using KU-1000100 manufactured by King Seisakusho Co., Ltd. as an ultraviolet ray cut filter, irradiation with 5 million 1× of light was carried out for 50 hours under the oxygen-blocking conditions to carry out a light resistance test. The temperature of the specimen to be tested (the temperature inside the test device) was set to 63° C. The relative humidity in the test device was 50% RH.
The Re of the optically anisotropic layer before and after the light resistance test was measured, the light resistance in a case where the rate of change in Re described below was less than 10% was evaluated as A, and the light resistance in a case where the rate of change in Re was 10% or more was evaluated as B. The smaller the rate of change in Re, the more excellent the light resistance.
as §4, §5

In the case of `C=CC(=O)OCCSc1ccc(C#Cc2ccc(OCCOc3ccc(C#Cc4ccc(SCCOC(=O)C=C)cc4)cc3C(=O)OC)c(C(=O)OC)c2)cc1` [Compound A-18], in data set [1], the Δn entry is “A (A case where Δn was 0.35 or more was evaluated as A)”. In data set [2], the Durability entry was “A (the durability in a case where the rate of change in Re was less than 10% was evaluated as A)”. Moreover, the Solubility entry in data set [3] is “A (the solubility in a case where the precipitation concentration was 10% by mass or more was evaluated as A)”. Also, in data set [4], the Liquid crystallinity result is “A”. The Light resistance entry in data set [5] is recorded as “A (the light resistance in a case where the rate of change in Re described below was less than 10% was evaluated as A)”.
For the molecule `CC(=O)OCCCCCCCCCCOc1ccc(C#Cc2ccc(OC(=O)c3ccc(C#Cc4ccc(OCCCCCCCCCCOC(C)=O)c(F)c4)cc3)cc2)cc1F` [RA-1, reference compound], the Δn result in data set [1] was “D (a case where Δn was less than 0.30 was evaluated as D)”. In addition, in data set [2], the Durability result is “A (the durability in a case where the rate of change in Re was less than 10% was evaluated as A)”. Also, the Solubility entry in data set [3] is “B (the solubility in a case where the precipitation concentration was less than 10% by mass was evaluated as B)”. In data set [4], the Liquid crystallinity entry is “A”. The Light resistance result in data set [5] is recorded as “B (the light resistance in a case where the rate of change in Re was 10% or more was evaluated as B)”.
Turning to `C=CC(=O)OCCCCSc1ccc(C#Cc2ccc(NC(=O)c3ccc(SCCCCOC(=O)C=C)cc3)c(C(F)(F)F)c2)cc1` [RA-2, reference compound], the Δn result in data set [1] is “C (a case where Δn was 0.30 or more and less than 0.32 was evaluated as C)”. In data set [2], the Durability result is recorded as “A (the durability in a case where the rate of change in Re was less than 10% was evaluated as A)”. Further, the Solubility entry in data set [3] is listed as “B (the solubility in a case where the precipitation concentration was less than 10% by mass was evaluated as B)”. Besides, the Liquid crystallinity result in data set [4] was “A”. For the same molecule, the Light resistance entry in data set [5] is recorded as “B (the light resistance in a case where the rate of change in Re was 10% or more was evaluated as B)”.
